Reference: patent publication US11279702B2, “AMPK activators” (Kallyope, Inc., priority 2020, dated 2022)
Values belong to the compound of their own block, whether it stands above or below them.

How the values were obtained:
[1] = Pharmacokinetics (oral bioavailability, IV parameters); settings: mouse, in vivo, C57BL/6 mice; for bioavailability: IV 1 mg/kg, PO 30 mg/kg; for half-life / Vd: IV administration 1 mg/kg; for Vd: read-out: volume of distribution
Procedure: Compounds were tested for pharmacokinetics in C57BL/6 mice. Compounds 2, 4, and A1 were dosed IV at 1 mg/kg as a formulation of 0.5 mg/mL in 5% DMSO+30% PEG400+65% water and PO at 30 mg/kg as a formulation of 6 mg/mL in 0.25% MC+5% Tween 80+0.02% SDS. Compound 1 was dosed IV at 1 mg/kg as a formulation of 0.50 mg/mL in 5% DMSO+30% PEG400+65% water and PO at 30 mg/kg as a formulation of 6 mg/mL in 0.5% MC+0.5% Tween 80.

[2] = molecular target: T1, Recombinant AMPK α1/β1/γ1 complex (Homo sapiens (Human), UniProt Q13131+Q9Y478); assay: In vitro pAMPK1 kinase activation assay (ADP-Glo, SAMS peptide); assay type: biochemical; settings: for EC50: AMPK α1/β1/γ1 pre-activated with CAMKK2, 12-point curve; for activation at 10 µM: relative to reference compound MK-8722
Procedure: Compound effect on AMPK enzyme activation was determined in a cell-free format with a 12-point concentration curve. The ADP-Glo detection system was used to determine phosphorylation of a SAMS peptide substrate. Recombinant AMPK α1/β1/γ1 complex was pre-activated by phosphorylation with CAMKK2 followed by incubated with compound for 15 minutes prior to the SAMS phosphorylation reaction. Activity curves and EC50 values were fitted by interpolation to an ATP:ADP standard curve as indicated by the ADP-Glo manufacturer using Prism software. Activity at 10 μM is reported relative to a reference compound, MK-8722 (Science 2017, 357(6350):507-511).

[3] = system: Mouse In Vivo Acute Dextran Sulfate Sodium (DSS) Colitis Model; assay: Intestinal barrier function in acute DSS colitis model (FITC-dextran); set-up: species or system C57Bl/6 mice
Procedure: Vehicle or a dose of Compound A1 or Compound 1 was administered once daily by oral gavage to C57Bl/6 mice. After 3 days of pre-dosing, dextran sulfate sodium (DSS) was simultaneously administered at 2.5-3% in drinking water, and appropriate water-only controls were included.
After 6 days of DSS administration, animals treated with Compound A1 were switched back to their regular water source and a 24-hour wash-out of both DSS and compound was provided. The animals were fasted on the morning of take-down and administered a single oral bolus dose of FITC-dextran. The animals were sacrificed by cardiac puncture 4 hours after administration and plasma was collected. The concentration of FITC-dextran present in plasma was determined by measuring fluorescence intensity on a standard plate reader, and fitting values back to a standard curve.
After 7 days of DSS administration, animals treated with Compound 1 were switched back to their regular water source and the animals were administered a single oral bolus dose of FITC-dextran (FD) four hours prior to necropsy. The animals were sacrificed by cardiac puncture and serum was collected. The concentration of FITC-dextran present in serum was determined by measuring fluorescence intensity on a standard plate reader, and fitting values back to a standard curve.

[4] = molecular target: T1, Recombinant AMPK α1/β1/γ1 complex; assay: In vitro pAMPK1 kinase activation assay (ADP-Glo, SAMS peptide); assay type: biochemical; settings: at 10 μM
MDCK cells = assay: Effects on tight junction (TJ) architecture, ZO-1 staining; assay type: cell-based; settings: 10 μM, low calcium medium (LCM)
Procedure: MDCK cells were grown to confluence on Transwell inserts in standard growth media. The inserts were then washed and incubated in low calcium medium (LCM) with vehicle or compound (10 μM) and fixed with paraformaldehyde. Fixed cells were stained for tight junction (TJ) component proteins using commercially available antibodies and visualized on a confocal microscope (Model DM6, Leica Microsystems). As shown by zona occludens-1 (ZO-1) staining, confluent epithelial cell monolayers in standard growth media display well-organized TJs that allow the cells to form a tight seal with their neighbors, while LCM induces autonomous internalization of TJ proteins into the cytoplasm and therefore compromises the barrier function of the epithelial monolayer.

[5] = system: Mouse In Vivo Chemotherapy-Induced Intestinal Injury Model; assay: Diarrhea in chemotherapy (5FU)-induced intestinal injury model; set-up: species or system BALB/c mice
Procedure: Compounds were formulated in vehicle (0.25% methyl cellulose, 5% Tween 80, 0.02% sodium dodecyl sulfate (SDS) in Hanks' Buffered Salt Solution with Ca2+ and Mg2+). On day 1, either saline or a 400 mg/kg dose of 5-fluorouracil (5FU) in saline was administered by intraperitoneal injection to BALB/c mice. Starting on day 2, vehicle or compound was administered once or twice a day by oral gavage. In some instances, compound was also administered once or twice a day by oral gavage from day −3 to day −1 (pre-5FU). From days 5 to 6 post-5FU, the animals were scored for diarrhea severity once a day. The diarrhea was scored 0-3 as follows: 0—normal consistency (black and solid), 1—soft (black and a bit lighter/yellow), 2—loosely shaped stool (yellowish and somewhat watery), 3—extreme diarrhea (very watery). Day 5 and day 6 diarrhea scores following administration of certain compounds were lower than vehicle control mice. […] In addition, Compound 1 was efficacious at doses as low as 3 mg/kg BID (6 mg/kg total daily dose).

[6] = system: Madin-Darby Canine Kidney (MDCK) cells; assay: In vitro MDCK epithelial permeability assay (FITC-dextran, calcium switch); assay type: cell-based; settings: low calcium medium, MDCK monolayers
Source text: In order to quantitatively measure the effects of transporter substrate AMPK activators on epithelial permeability in vitro, standard calcium switch protocols from the literature were adapted for use with Madin-Darby Canine Kidney (MDCK) cells grown on Corning Transwell inserts for use with fluorescein isothiocyanate-dextran, average molecular weight 4 kDa (FITC-dextran). FITC-dextran is a large, metabolically inert sugar molecule that is not readily transferrable across healthy epithelial barriers in vitro or in vivo. This compound has been tagged with a fluorophore to easily track its movement.
Briefly, MDCK cells were seeded onto Transwell inserts and grown according to manufacturer instructions until confluent. On the day of the experiment, a baseline reading was taken in standard growth media in which FITC-dextran was spiked into the apical chamber and the percent permeation of FITC-dextran from the apical to the basolateral chamber was measured. The inserts were then washed in low calcium medium (LCM) containing either vehicle or compound to remove residual FITC-dextran and calcium, and FITC-dextran was once again spiked into the apical chamber and the percent permeation in LCM was measured. Values were determined by reading fluorescence intensity on a standard plate reader and calculated by fitting back to 12-point standard curve in either growth media or LCM+vehicle, respectively. The fold induction of FITC-dextran permeation to the basolateral chamber when each well was transferred from baseline growth media to LCM was then calculated.

T1 sequence (Q13131 whole entry): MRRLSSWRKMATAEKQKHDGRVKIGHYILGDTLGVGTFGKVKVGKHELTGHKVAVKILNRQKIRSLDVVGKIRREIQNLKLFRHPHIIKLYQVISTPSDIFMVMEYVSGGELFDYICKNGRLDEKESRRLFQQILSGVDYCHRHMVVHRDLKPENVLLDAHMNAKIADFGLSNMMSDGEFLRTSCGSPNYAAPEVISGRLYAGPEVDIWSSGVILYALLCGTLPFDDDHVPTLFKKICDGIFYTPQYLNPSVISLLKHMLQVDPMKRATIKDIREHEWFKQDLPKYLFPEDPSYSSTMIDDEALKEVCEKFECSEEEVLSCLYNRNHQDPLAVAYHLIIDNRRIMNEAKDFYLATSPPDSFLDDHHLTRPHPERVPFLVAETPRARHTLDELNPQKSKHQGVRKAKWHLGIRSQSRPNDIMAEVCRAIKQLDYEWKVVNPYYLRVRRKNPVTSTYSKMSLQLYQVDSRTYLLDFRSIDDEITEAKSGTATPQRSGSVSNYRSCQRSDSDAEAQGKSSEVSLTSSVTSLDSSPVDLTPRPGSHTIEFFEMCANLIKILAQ
T1 sequence (Q9Y478 whole entry): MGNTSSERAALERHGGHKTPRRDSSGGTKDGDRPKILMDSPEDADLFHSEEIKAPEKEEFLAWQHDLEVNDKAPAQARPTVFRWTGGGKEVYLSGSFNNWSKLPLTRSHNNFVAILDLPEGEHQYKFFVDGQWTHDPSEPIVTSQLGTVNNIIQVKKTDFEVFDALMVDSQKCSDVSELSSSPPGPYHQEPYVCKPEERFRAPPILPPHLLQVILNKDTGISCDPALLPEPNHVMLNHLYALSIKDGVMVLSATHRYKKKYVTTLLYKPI
T1 sequence (P54619 whole entry partner): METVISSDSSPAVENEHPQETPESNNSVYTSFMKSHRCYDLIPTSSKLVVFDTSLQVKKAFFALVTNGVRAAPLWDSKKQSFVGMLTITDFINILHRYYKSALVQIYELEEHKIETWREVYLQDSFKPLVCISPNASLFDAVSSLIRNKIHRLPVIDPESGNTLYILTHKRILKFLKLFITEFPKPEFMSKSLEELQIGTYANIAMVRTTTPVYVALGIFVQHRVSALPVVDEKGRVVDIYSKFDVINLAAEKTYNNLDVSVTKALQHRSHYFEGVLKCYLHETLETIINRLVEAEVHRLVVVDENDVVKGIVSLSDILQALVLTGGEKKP

bioavailability [1]: < 1%
half-life [1]: 4.8 h
Vd [1]: 2.4 L/kg
EC50 [2]: 200 nM
activation at 10 µM [2]: 48%
Compound: O=C(O)CSc1nc2cc(-c3ccc(-c4ccccc4O)cc3)c(Cl)cc2[nH]1 [Compound A1]
Change in Fluorescence Intensity vs. Vehicle ([3]; 30 mg/kg PO once daily, plasma, 6 days DSS then 24-hour wash-out): −60%
activation compared with AMP [4]: activation greater than that displayed by AMP
TJ architecture by zona occludens-1 (ZO-1) staining (MDCK cells): prevented the loss of TJ architecture
Diarrhea Score % Change vs. Vehicle ([5]; 30 mg/kg QD, Day 5): +38%
Diarrhea Score ([5]; 30 mg/kg QD, Day 5, score 0-3): 1.38
Diarrhea Score % Change vs. Vehicle ([5]; 30 mg/kg QD, Day 6): −29%
Diarrhea Score ([5]; 30 mg/kg QD, Day 6, score 0-3): 1.25
reduction of FITC-dextran permeation relative to vehicle ([6]; 0.1 μM): 40%
reduction of FITC-dextran permeation relative to vehicle ([6]; 1 μM): 61%

bioavailability [1]: < 1%
half-life [1]: 1.9 h
Vd [1]: 0.7 L/kg
potency relative to Compound A1 [2]: > 100 fold
EC50 [2]: 1.4 nM
activation at 10 µM [2]: 35%
Compound: O=C(O)CSc1nc2nc(-c3ccc(-c4ccccc4O)cc3)c(Cl)cc2[nH]1 [Compound 1, 2-((6-chloro-5-(2′-hydroxy-[1,1′-biphenyl]-4-yl)-1H-imidazo[4,5-b]pyridin-2-yl)thio)acetic Acid]
Change in Fluorescence Intensity vs. Vehicle ([3]; 3 mg/kg PO once daily, serum, 7 days DSS): −35%
Change in Fluorescence Intensity vs. Vehicle ([3]; 10 mg/kg PO once daily, serum, 7 days DSS): −69%
Change in Fluorescence Intensity vs. Vehicle ([3]; 30 mg/kg PO once daily, serum, 7 days DSS): −80%
Change in Fluorescence Intensity vs. Vehicle ([3]; 100 mg/kg PO once daily, serum, 7 days DSS): −96%
activation compared with AMP [4]: activation greater than that displayed by AMP
TJ architecture by zona occludens-1 (ZO-1) staining (MDCK cells): prevented the loss of TJ architecture
Diarrhea Score % Change vs. Vehicle ([5]; 3 mg/kg BID, Day 5): −17%
Diarrhea Score ([5]; 3 mg/kg BID, Day 5, score 0-3): 0.50
Diarrhea Score % Change vs. Vehicle ([5]; 3 mg/kg BID, Day 6): −56%
Diarrhea Score ([5]; 3 mg/kg BID, Day 6, score 0-3): 0.75
Diarrhea Score % Change vs. Vehicle ([5]; 10 mg/kg BID, Day 5): −28%
Diarrhea Score ([5]; 10 mg/kg BID, Day 5, score 0-3): 0.43
Diarrhea Score % Change vs. Vehicle ([5]; 10 mg/kg BID, Day 6): −71%
Diarrhea Score ([5]; 10 mg/kg BID, Day 6, score 0-3): 0.50
Diarrhea Score % Change vs. Vehicle ([5]; 30 mg/kg BID, Day 5): −100%
Diarrhea Score ([5]; 30 mg/kg BID, Day 5, score 0-3): 0
Diarrhea Score % Change vs. Vehicle ([5]; 30 mg/kg BID, Day 6): −66%
Diarrhea Score ([5]; 30 mg/kg BID, Day 6, score 0-3): 0.57
Diarrhea Score % Change vs. Vehicle ([5]; 30 mg/kg QD, Day 5): −30%
Diarrhea Score ([5]; 30 mg/kg QD, Day 5, score 0-3): 0.63
Diarrhea Score % Change vs. Vehicle ([5]; 30 mg/kg QD, Day 6): −58%
Diarrhea Score ([5]; 30 mg/kg QD, Day 6, score 0-3): 0.75
Diarrhea Score % Change vs. Vehicle ([5]; 100 mg/kg BID, Day 5): −63%
Diarrhea Score ([5]; 100 mg/kg BID, Day 5, score 0-3): 0.38
Diarrhea Score % Change vs. Vehicle ([5]; 100 mg/kg BID, Day 6): −79%
Diarrhea Score ([5]; 100 mg/kg BID, Day 6, score 0-3): 0.38
reduction of FITC-dextran permeation relative to vehicle ([6]; 0.1 μM): 48%
reduction of FITC-dextran permeation relative to vehicle ([6]; 1 μM): 62%
